Source: US20070173545A1, “Activation of hypoxia-inducible gene expression” (priority 2003, published 2007)
“Also recorded” adds a separate entry of the source. Where two headings read alike, the source gives them in different places.

Legend:
HIF-1a protein [1] = assay: HIF-1a levels in nuclear extracts of U87 glioma cells (western blot); assay type: cell-based, human; details: for Effect on induction of HIF-1a by glucose (Krebs buffer): 50 μM IAA, 1 mM 4-CIN, NAD or NADH 3 mM each, catalase 1000 and 2000 units/ml; for HIF-1a accumulation, glucose replaced with metabolite: glucose-free Krebs, 3 mM concentrations
Method: (A) U87 glioma cells cultured in DMEM were switched to Krebs buffer containing 5.5 mM glucose (Glc) and then evaluated for nuclear HIF-1a levels at various times by western blot analysis. (B) HIF-1a levels were measured after four hours incubation of cells in Krebs buffer containing the indicated glucose concentrations or with 5.5 mM 2-deoxyglucose (2-DG) substituted for glucose. (C) HIF-1a levels were measured in U87 cells cultured in glucose-free Krebs buffer following treatment for four hours under normoxia (21% oxygen) hypoxia (1% oxygen) or with 150 μm desferrioxamine (DFO). (D) Induction of HIF-1a by glucose was monitored in the presence of 50 μM IAA or 1 mM 4-CIN. […] Results are representative of experiments repeated at least three times.
Similar measurements were made in the presence of 50 μM IAA or in glucose-free Krebs buffer. […] HIF-1a induction by four hours treatment with 5.5 mM glucose-containing Krebs (Glc) is shown for comparison. (E) Digitonin-permeabilized cells were treated with 1% oxygen or Krebs containing either 5.5 mM glucose or 2 mM pyruvate in the presence of 50 μM IAA. Permeabilized cell in lanes 5 and 6 were treated with 3 mM NAD or NADH respectively in glucose free Krebs. Nuclear HIF-1a levels were determined four hours later. (F) HIF-1a levels were determined after four hour treatment of cells in glucose-free Krebs (lane 1) or 5.5 mM Glucose containing Krebs. […] (H) To measure the decay of the HIF-1a protein, HIF-1a measurements were made after four hour treatment under hypoxia (lane 1), four hours hypoxia followed by 30 minutes normoxia (lane 2), four hour treatment with 150 μM DFO (lane 3), four hours DFO followed by addition of 100 μM CHX for one hour (lane 4), four hours treatment with 2 mM pyruvate (lane 5), and four hours pyruvate followed by addition of 100 μM CHX for one hour (lane 6). (H) HIF-1a levels were determined in digitonin-permeabilized cells treated for four hour with Krebs containing no glucose (lane 1), 1 mM pyruvate (lane 2), or 1 mM pyruvate and 10 mM 2-OG (lane 3).
In order to resolve the biochemical mechanisms underlying this phenomenon, we studied the human glioma cell line U-87 under conditions of carefully defined culture media. Thus we studied these cells while culturing them in freshly prepared Krebs buffer, all components of which were known to us.
To precisely define the glucose metabolite mediating HIF-1a accumulation, we utilized pharmacological inhibitors of glycolysis as well as the direct addition of different glucose metabolites to cells (FIG. 4).

HPH-1 [2] = molecular target: T1, HPH-1 (Homo sapiens, UniProt Q9H6Z9); assay: ^35S-pVHL capture assay, HPH-1; assay type: biochemical; set-up: made in house; host or cells: rabbit reticulocyte in vitro translation from expression plasmids; details: assay optimization shown for HPH-1, dose curves
Method: After incubating the peptide with the HPHs and the indicated reagents, ^35S-pVHL was added followed by addition of streptavidin-coated beads to pull down the HIF-1a peptide. The reaction was pelleted, the pellet was washed and then solubilized for SDS-PAGE analysis followed by autoradiography to reveal the captured ^35S-pVHL. Using in vitro translated HPH homologues we first optimized assay conditions with respect to the required HPH substrates and co-factors. […] Conditions: ascorbate=2 mM, 2-OG=2 mM, DTT=1 mM. […] In all assays 5 μl (about 20 ng) of enzyme and 1 μg of peptide was utilized.
Ascorbate concentrations were varied as indicated and OAA or Pyr were added where indicated at 1 mM.
After incubating 1 μg amount of the peptide with in vitro translated HPH and the indicated reagents, ^35S-pVHL was added followed by the addition of Streptavidin-coated beads to pull down the HIF-1a peptide. The reaction was pelleted, and the pellet was washed and solubilized for SDS-PAGE analysis followed by autoradiography to reveal the captured ^35S-pVHL. Using each of the in vitro translated HPH homologues we first optimized assay conditions with respect to the required HPH substrates and co-factors.

HPH-1 [3] = molecular target: T1, HPH-1; details: 20 mM competitor, ^35S-HPH-1, total binding
Method: Following four further washes radiolabel associated with the pellets was measured via scintillation counting.
We also prepared ^35S-labeled HPH homologues from expression plasmids using the rabbit reticulocyte culture system (Bruick et al. (2001) Science 294, 1337-1340). The 2-OG column allowed us to investigate the binding of ^35S-HPH as well as potential competitors of binding.

HRE containing promoter = assay: HRE-luciferase reporter in U251 cells; assay type: cell-based, human
Description: FIG. 18: 2-oxoacids activate HIF-mediated gene expression in human cell lines Effective gene expression by HIF not only involves HIF protein stabilization via inhibition of HPH enzymes but also HIF-1 binding to DNA, inhibition of FIH-1 activity, and gene transcription (see FIG. 1). (A) Glioma cells used in our studies express FIH-1 as assessed using RT-PCR. […] Expression of beta-actin, a housekeeping gene not under HIF regulation is not affected by pyruvate. […] (E) U373 cell were transfected with a green fluorescent protein (GFP) construct under the control of an HIF regulatory element (HRE) containing promoter and then cultured for eight hours in glucose-free medium under the indicated conditions. […] U251 cells stably transfected with a luciferase construct under the control of an HRE containing promoter were cultured for six hours in glucose free Krebs with the following conditions: 1=control, 2=1% oxygen, 3=pyruvate (2 mM), 4=OAA (2 mM), 5=Ethylpyruvate (2 mM), 6=Glucose (5.5 mM), 7=DMOG (0.5 mM), 8=Lactacystin-beta lactone ([…]).
FIG. 19: HIF-mediated gene expression is selectively reversed by ascorbate U251 cells stably expressing HRE-luciferase were cultured in glucose-free Krebs buffer with the indicated conditions for eight hours. Pyruvate, oxaloacetate, and DMOG were added at 1 mM each.
Effective gene expression by HIF not only involves HIF protein stabilization via inhibition of HPH enzymes but also HIF-1 binding to DNA, inhibition of FIH-1 activity, and gene transcription. The human gliomas that we utilized for most of our studies all express mRNA for FIH-1 (FIG. 18A). […] To directly assess activation of gene containing an HRE regulated promoter by the glucose metabolites pyruvate and oxaloacetate, we used U373 glioma cells transfected with an HRE-green fluorescent (HRE-GFP) construct that responds to HIF activation.

HIF-1a [4] = assay: HIF-1a induction in digitonin-permeabilized human glioma cells (U87, U251); assay type: cell-based; details: 1 mM ATP
HPH = HPH activity of extracts of pretreated U251 cells (^35S-pVHL pulldown); assay type: cell-based, human; details: four hours, 1 mM pyruvate or oxaloacetate, DMOG
Method: FIG. 17: Inactivation of cellular HPH activity by pyruvate and oxaloacetate U251 cells were cultured for four hours in glucose-free Krebs buffer with or without the indicated additions. Whole cell extracts were then prepared and used as a source of HPH enzyme to hydroxylate a biotinylated peptide from the HIF-1a ODD containing proline 564. Proline hydroxylation was measured by the ability of streptavidin coated beads to pulldown the hydroxyproline ^35S-pVHL complex as in FIGS. 12-14.
To directly determine whether HPH activity had been inactivated by pyruvate or oxaloacetate treatment, we evaluated the ability of U251 cell extracts from pyruvate or oxaloacetate treated cells to hydroxylate HIF-1a peptide using the ^35S-pVHL pulldown assay (Ivan et al. (2002) Proc. Natl. Acad. Sci. USA 99, 13459-13466). In these experiments, ascorbate was omitted from the in vitro portion of the assay.

HIF-1a [5] = assay: HIF-1a induction in digitonin-permeabilized human glioma cells (U87, U251); assay type: cell-based; details: 1 mM doses
Method: We determined the ability of each shown structure to induce HIF by exposing digitonin-permeabilized human glioma cells (U87, U251) to 1 mM doses.
At four hours, ATP levels were measured in cell extracts using the luciferase method.
(§1) In order to investigate the mechanism of action of the 2-oxoacid HIF inducers that we identified we first determined their effects upon cellular ATP levels. […] As shown in the scheme in FIG. 1, cellular levels of HIF-1a can be elevated by blockade of proteasomal activity, ubiquitinylation, or prolyl hydroxylation. Inhibition of the proteasome by lactacystin beta-lactone (Lbl) leads to accumulation of HIF-1a in its polyubiquitinylated form which generally appears as a smear of higher molecular weight species on western blots. […] Cellular accumulation and nuclear translocation of HIF-1a can also be studied via immunohistochemistry. For this purpose we utilized U251 cells which are more adherent to cell culture dishes that the U87 cells.

HIF-1a [6] = assay: HIF-1a decay after washout of the inducer in U251 and U87 cells; assay type: cell-based, human; details: 1 mM pyruvate four hours, then glucose free Krebs in normoxia
Method: FIG. 16: Ascorbate reverses the prolonged HIF-1a accumulation (A) Comparison of HIF-1a decay in U251 following induction with either hypoxia or pyruvate. U251 cells were cultured in glucose-free Krebs under hypoxia or with 1 mM pyruvate in normoxia for four hours. Following this cells were switched to glucose free Krebs in normoxia and fixed in formaldehyde at the indicated times. Cells were then stained for HIF-1a immunoreactivity. Note the rapid decay of nuclear HIF-1a staining after having been induced by hypoxia versus pyruvate. (B) U87 cell treated for four hours under hypoxia show prominent HIF-1a induction which is completely degraded by thirty minutes of re-oxygenation. U87 cells were treated in glucose-free Krebs buffer with or without 1 mM pyruvate or oxaloacetate.
HPH-2 has been reported to constitute the major HPH activity of most cells. We therefore evaluated the ability of ascorbate to prevent HIF-1a accumulation by pyruvate and oxaloacetate in living cells. […] To test this possibility we compared the reversibility of HIF-1a accumulation following induction with either hypoxia, pyruvate, or oxaloacetate. The rationale for these experiments stems from the well-known reversible inhibition of HPH activity by hypoxia (see FIG. 1). Thus HIF-1a accumulation and HIF activation during hypoxia is rapidly reversed upon re-oxygenation. […]

HIF-1a protein [7] = assay: Nuclear HIF-1a accumulation in glioma cells by immunohistochemistry; assay type: cell-based, human; details: 2 mM, four hours, glucose-free Krebs buffer, Lbl 20 μM
Description: Cells were then washed, fixed and stained for HIF-1a protein.
as §1

T1 sequence (Q9H6Z9 whole entry): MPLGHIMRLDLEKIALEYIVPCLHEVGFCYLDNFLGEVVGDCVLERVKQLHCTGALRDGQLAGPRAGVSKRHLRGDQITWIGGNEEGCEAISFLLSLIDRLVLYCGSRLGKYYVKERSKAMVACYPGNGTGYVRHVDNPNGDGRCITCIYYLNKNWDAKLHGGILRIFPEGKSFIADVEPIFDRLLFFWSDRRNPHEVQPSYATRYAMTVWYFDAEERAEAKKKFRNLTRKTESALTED

Compound: O=CC[C@@H](O)[C@H](O)[C@H](O)CO [2-deoxyglucose]
- HIF-1a levels (HIF-1a protein [1]; Krebs buffer with glucose or 5.5 mM 2-deoxyglucose, four hours, normoxia): could not be mimicked

Compound: O=C(O)CCC(=O)C(=O)O [2-oxoglutarate]
- Requirement of substrates and co-factors for HPH activity (HPH-1 [2]): absolutely required for activity
- Displacement of HPH binding to the 2-oxoglutarate column (HPH-1 [3]): Nearly half of the total binding of HPH to the 2-oxoglutarate column could be displaced
- Displacement of HPH binding to the 2-oxoglutarate column (HPH-1 [3]; listed as 2-OG): could displace this binding
- Reversal of HRE-luciferase activation by pyruvate or oxaloacetate (HRE containing promoter; eight hours, oxaloacetate 1 mM, 2-oxoglutarate 10 mM): No reversal was seen

Compound: Nc1ncnc2c1ncn2[C@@H]1O[C@H](COP(=O)(O)OP(=O)(O)OP(=O)(O)O)[C@@H](O)[C@H]1O [ATP]
- HIF-1a levels after direct addition of ATP (HIF-1a [4]): did not raise basal HIF-1a levels; also recorded: had no effect on HIF-1a levels

Compound: O=C(O)C=Cc1ccc(O)cc1 [Cinnamate, 4-hydroxycinnamate]
- Effect on induction of HIF-1a by glucose (Krebs buffer) (HIF-1a protein [1]): did not prevent the effect of Krebs buffer on HIF-1a accumulation

Compound: COC(=O)CNC(=O)C(=O)OC [DMOG, dimethyloxalylglycine]
- HPH activity of extracts of pretreated cells (HPH): No such pretreatment-induced inhibition; also recorded: no such loss of HPH activity
- Ability to induce HIF (HIF-1a accumulation), structure-activity (HIF-1a [5]): consistently enhanced HIF-1a levels

Compound: NC(=O)CI [Iodoacetamide]
- Effect on induction of HIF-1a by glucose (Krebs buffer) (HIF-1a protein [1]): completely blocked the ability of Krebs buffer to stimulate HIF-1a accumulation

Compound: O=S(=O)([O-])[O-].[Fe+2] [Iron, iron sulfate]
- Requirement of substrates and co-factors for HPH activity (HPH-1 [2]): absolutely required up to a maximal of about 100 μM

Compound: NC(=O)C1=CN([C@@H]2O[C@H](COP(=O)(O)OP(=O)(O)OC[C@H]3O[C@@H](n4cnc5c(N)ncnc54)[C@H](O)[C@@H]3O)[C@@H](O)[C@H]2O)C=CC1 [NADH]
- Effect on induction of HIF-1a by glucose (Krebs buffer) (HIF-1a protein [1]): neither NAD or NADH (3 mM each) had any effect on this induction

Compound: NC(=O)c1ccc[n+]([C@@H]2O[C@H](COP(=O)([O-])OP(=O)(O)OC[C@H]3O[C@@H](n4cnc5c(N)ncnc54)[C@H](O)[C@@H]3O)[C@@H](O)[C@H]2O)c1 [NAD]
- Effect on induction of HIF-1a by glucose (Krebs buffer) (HIF-1a protein [1]): neither NAD or NADH (3 mM each) had any effect on this induction

Compound: C[C@H](N)C(=O)O [alanine]
- HIF-1a accumulation, glucose replaced with metabolite (HIF-1a protein [1]; four hours): without effect

Compound: CC[C@H](C)C(=O)C(=O)O [alpha-keto-beta-methylvalerate]
- Ability to induce HIF (HIF-1a accumulation), structure-activity (HIF-1a [5]): capable of stimulating HIF-1a accumulation

Compound: O=C(O)CCCC(=O)C(=O)O [alpha-ketoadipate]
- Ability to induce HIF (HIF-1a accumulation), structure-activity (HIF-1a [5]): ineffectiveness

Compound: CCC(=O)C(=O)O [alpha-ketobutyrate]
- Ability to induce HIF (HIF-1a accumulation), structure-activity (HIF-1a [5]): ineffectiveness

Compound: CC(C)CC(=O)C(=O)O [alpha-ketoisocaproate]
- Ability to induce HIF (HIF-1a accumulation), structure-activity (HIF-1a [5]): capable of stimulating HIF-1a accumulation

Compound: CC(C)C(=O)C(=O)O [alpha-ketoisovalerate]
- Ability to induce HIF (HIF-1a accumulation), structure-activity (HIF-1a [5]): capable of stimulating HIF-1a accumulation

Compound: O=C(O)CC(O)(CC(=O)O)C(=O)O [citrate]
- HIF-1a accumulation, glucose replaced with metabolite (HIF-1a protein [1]; four hours): without effect

Compound: CCOC(=O)C(C)=O [ethylpyruvate, Ethylpyruvate]
- Ability to induce HIF (HIF-1a accumulation), structure-activity (HIF-1a [5]): identified as HIF-1 activators
- HIF-1a accumulation, glucose replaced with metabolite (HIF-1a protein [1]; four hours): as pronounced as those of the known 2-oxoglutarate antagonist dimethyloxalylglycine (DMOG)
- HRE-luciferase expression (HRE containing promoter; six hours, glucose free Krebs, pyruvate, OAA, Ethylpyruvate 2 mM, Lactacystin-beta lactone 20 mM): prominent activation of luciferase gene expression

Compound: O=C(O)CC(O)C(=O)O (stereo not shown) [malate]
- Ability to induce HIF (HIF-1a accumulation), structure-activity (HIF-1a [5]): ineffective

Compound: CC(=O)C(=O)O [pyruvate]
- Persistence of HIF-1a accumulation after washing out (HIF-1a [6]): > 40 min

Compound: Catalase
- Effect on induction of HIF-1a by glucose (Krebs buffer) (HIF-1a protein [1]): had no effect

Compound: lactate
- HIF-1a accumulation, glucose replaced with metabolite (HIF-1a protein [1]; four hours): activate HIF-1a directly

Compound: succinate
- Nuclear HIF-1a accumulation (immunostaining) (HIF-1a protein [7]): ineffectiveness
- Nuclear HIF-1a accumulation (immunostaining) (HIF-1a protein [7]; listed as Succinate): does not affect HIF-1a accumulation
- HIF-1a accumulation, glucose replaced with metabolite (HIF-1a protein [1]; four hours): without effect
- Displacement of HPH binding to the 2-oxoglutarate column (HPH-1 [3]): could not; also recorded: but not by 20 mM succinate
